From patent US20240299352A1, “COMBINATION THERAPIES WITH SETD2 INHIBITORS” (Epizyme, Inc., priority 2021, published 2024) come the findings set out here.

SMILES strings stand for the structures.

One experiment relates to DB. Kind of experiment: Co-treatment combination study with Cpd. No. 15, CellTiter-Glo viability, Loewe Volume. It is filed as cell-based. The following applies: in combination with Cpd. No. 15, seven days, DLBCL cell line DB. The procedure:
(§1) Mantle cell lymphoma (MCL) and diffuse large B-cell lymphoma (DLBCL) cell line cultures in log-linear growth rate were treated with combinations of Cpd. No. 15 and combination partners according to a co-treatment model. […] No. 15 and the combination partner. […] Each combination was tested in quadruplicate wells. The final concentration of DMSO (vehicle) in the assay was 0.1% v/v. Fifty microliters of cell line suspension were directly dispensed to the assay-ready plates with an automated multichannel dispenser on to 384-well assay-ready plates. Assay plates were incubated for seven days unless otherwise indicated in a humidified atmosphere of 5% CO2 at 37° C. Quantification of the effect of single agents or combinations on cell viability was performed through measurement of cellular adenosine triphosphate (ATP) using a CellTiter-Glo® (Promega, Madison, WI) Luminescent Cell Viability Assay. Luminescence was detected using a SpectraMax M5 microplate reader (Molecular Devices, Sunnyvale, CA). Concentration response plots were generated in GraphPad Prism version 7.0 for Windows, GraphPad Software, (La Jolla, California) and curves fitted to a four-parameter logistic model with variable slope. Percent of inhibition was calculated at each treatment concentration.

The next experiment relates to DOHH2. Described as above. It is filed as cell-based. The settings on record: in combination with Cpd. No. 15, seven days, DLBCL cell line DOHH2. The procedure: as §1
The subject of a further experiment is HT. The experiment is described as above. Type of experiment: cell-based. The following applies: in combination with Cpd. No. 15, seven days, DLBCL cell line HT. The procedure: as §1
In another experiment the test system is KARPAS422. Described as above. Type of experiment: cell-based. The following applies: in combination with Cpd. No. 15, seven days, DLBCL cell line KARPAS422. The procedure: as §1
A further experiment concerns Pfeiffer. Described as above. Type of experiment: cell-based. The following applies: in combination with Cpd. No. 15, seven days, DLBCL cell line Pfeiffer. The procedure: as §1
In another experiment the test system is RL. Described as above. It is filed as cell-based. The following applies: in combination with Cpd. No. 15; 6-Day Cotreatment; DLBCL cell line RL. The procedure: as §1
The test system of another experiment is SUDHL10. The description is as above. Type of experiment: cell-based. The following applies: in combination with Cpd. No. 15; 5-Day Cotreatment; DLBCL cell line SUDHL10. The procedure: as §1
The subject of another experiment is SUDHL2. Described as above. The following applies: in combination with Cpd. No. 15, seven days, DLBCL cell line SUDHL2. It is filed as cell-based. As for the experimental part: as §1
The subject of another experiment is SUDHL4. Described as above. It is filed as cell-based. The settings on record: in combination with Cpd. No. 15, seven days, DLBCL cell line SUDHL4. As for the experimental part: as §1
In another experiment the test system is SUDHL5. Described as above. It is filed as cell-based. The following applies: in combination with Cpd. No. 15, seven days, DLBCL cell line SUDHL5. The procedure:
as §1

In a further experiment the test system is SUDHL6. Described as above. It is filed as cell-based. The settings on record: in combination with Cpd. No. 15, seven days, DLBCL cell line SUDHL6. The procedure:
as §1

The next experiment relates to SUDHL8. The experiment is described as above. Type of experiment: cell-based. The following applies: in combination with Cpd. No. 15, seven days, DLBCL cell line SUDHL8. As for the experimental part:
as §1

The subject of another experiment is TOLEDO. The experiment is described as above. Type of experiment: cell-based. The following applies: in combination with Cpd. No. 15, seven days, DLBCL cell line TOLEDO. The procedure: as §1
Another experiment has as its system WILL2. The description is as above. It is filed as cell-based. The following applies: in combination with Cpd. No. 15, seven days, DLBCL cell line WILL2. The procedure:
as §1

The subject of another experiment is WSUDLCL2. Described as above. It is filed as cell-based. The settings on record: in combination with Cpd. No. 15, seven days, DLBCL cell line WSUDLCL2. As for the experimental part: as §1
Another experiment concerns WSUNHL. The description is as above. Type of experiment: cell-based. The following applies: in combination with Cpd. No. 15, seven days, DLBCL cell line WSUNHL. The procedure: as §1
The subject of experiment [1] is diffuse large B-cell lymphoma (DLBCL) cell lines. Kind of experiment: Co-treatment combination study with Cpd. No. 15, further cell lines (Table F), CellTiter-Glo viability, Loewe Volume. The following applies: for Combination effect with Cpd. No. 15 (Loewe Volume class), Ri1: co-treatment with Cpd. No. 15, cell line Ri1 (Cat. No. 96090512-1VL); for Combination effect with Cpd. No. 15 (Loewe Volume class), TMD8: co-treatment with Cpd. No. 15, cell line TMD8 (Cat. No. M-097); for Combination effect with Cpd. No. 15 (Loewe Volume class), WILL1: co-treatment with Cpd. No. 15, cell line WILL1 (Cat. No. ACC 651). It is filed as cell-based. The procedure:
as §1

Experiment [2] shares this test system. Kind of experiment: Pre-treatment model combination study with Cpd. No. 15 (7 days pre-treatment, then combination; Table G), CellTiter-Glo viability, Loewe Volume. The settings on record: 7 days pre-treatment with Cpd. No. 15, then combination; for Combination effect with Cpd. No. 15 (Loewe Volume class), Farage: cell line Farage (Cat. No. CRL-2630); for Combination effect with Cpd. No. 15 (Loewe Volume class), HT: cell line HT (Cat. No. CRL-2631); for Combination effect with Cpd. No. 15 (Loewe Volume class), OCILY7: cell line OCILY7 (Cat. No. ACC 688); for Combination effect with Cpd. No. 15 (Loewe Volume class), WILL2: cell line WILL2 (Cat. No. ACC 652).

Turning to `Nc1ccn([C@@H]2O[C@H](CO)[C@@H](O)C2(F)F)c(=O)n1` [Gemcitabine, gemcitabine], the “Combination effect (Loewe Volume) DB” value in the experiment on DB is “Additivity (between 1 and −1: additivity)”. Further, the “Combination effect (Loewe Volume) DOHH2” value in the experiment with DOHH2 was “Additivity (between 1 and −1: additivity)”. Moreover, the “Combination effect (Loewe Volume) HT” value in the experiment with HT is “Additivity (between 1 and −1: additivity)”. Besides, the “Combination effect (Loewe Volume) KARPAS422” value with KARPAS422 is “Additivity (between 1 and −1: additivity)”. Further, in the experiment on Pfeiffer, the “Combination effect (Loewe Volume) Pfeiffer” value is “Additivity (between 1 and −1: additivity)”. Moreover, the “Combination effect (Loewe Volume) RL” value with RL is “Additivity (between 1 and −1: additivity)”. Further, the “Combination effect (Loewe Volume) SUDHL10” value with SUDHL10 was “Additivity (between 1 and −1: additivity)”. The “Combination effect (Loewe Volume) SUDHL2” value in the experiment on SUDHL2 is “Additivity (between 1 and −1: additivity)”. The “Combination effect (Loewe Volume) SUDHL4” value with SUDHL4 was “Additivity (between 1 and −1: additivity)”. For the same compound, the “Combination effect (Loewe Volume) SUDHL5” value in the experiment with SUDHL5 is “Additivity (between 1 and −1: additivity)”. Besides, the “Combination effect (Loewe Volume) SUDHL6” value with SUDHL6 was “Additivity (between 1 and −1: additivity)”. Further, in the experiment on SUDHL8, the “Combination effect (Loewe Volume) SUDHL8” value is “Additivity (between 1 and −1: additivity)”. Besides, the “Combination effect (Loewe Volume) TOLEDO” value in the experiment with TOLEDO is “Additivity (between 1 and −1: additivity)”. Also, the “Combination effect (Loewe Volume) WILL2” value with WILL2 is “Additivity (between 1 and −1: additivity)”. Besides, the “Combination effect (Loewe Volume) WSUDLCL2” value with WSUDLCL2 is “Additivity (between 1 and −1: additivity)”. Besides, in the experiment with WSUNHL, the “Combination effect (Loewe Volume) WSUNHL” value was “Additivity (between 1 and −1: additivity)”. For the same compound, in [1], the “Combination effect with Cpd. No. 15 (Loewe Volume class), Ri1” value was “Additivity (between 1 and −1: additivity)”; the “Combination effect with Cpd. No. 15 (Loewe Volume class), TMD8” value was “Additivity (between 1 and −1: additivity)”; the “Combination effect with Cpd. No. 15 (Loewe Volume class), WILL1” value was “Additivity (between 1 and −1: additivity)”. Also, in experiment [2], the “Combination effect with Cpd. No. 15 (Loewe Volume class), Farage” value was “Additivity (between 1 and −1: additivity)”; the “Combination effect with Cpd. No. 15 (Loewe Volume class), HT” value was “Additivity (between 1 and −1: additivity)”; the “Combination effect with Cpd. No. 15 (Loewe Volume class), OCILY7” value is “Additivity (between 1 and −1: additivity)”; the “Combination effect with Cpd. No. 15 (Loewe Volume class), WILL2” value was “Additivity (between 1 and −1: additivity)”. Further, the “Combination effect with Cpd. No. 15 (Loewe Volume class), SUDHL4” value in experiment [2] (cell line SUDHL4 (Cat. No. ACC 495)) is “Additivity (between 1 and −1: additivity)”.
With `CNC[C@@H](O)COc1ccc(Cl)c(-c2nc(-c3c(C)noc3C)c(C)c(N3CC4(CCN(C(=O)OC)CC4)C3)n2)c1` [EPZ-2302], the “Combination effect (Loewe Volume) DB” value in the experiment with DB is listed as “No Effect”. In addition, the “Combination effect (Loewe Volume) DOHH2” value in the experiment on DOHH2 is recorded as “Synergy (VLoewe>1: synergy)”. For the same compound, the “Combination effect (Loewe Volume) HT” value in the experiment with HT is on record as “Synergy (VLoewe>1: synergy)”. Also, the “Combination effect (Loewe Volume) KARPAS422” value in the experiment on KARPAS422 is “Synergy (VLoewe>1: synergy)”. Moreover, in the experiment on Pfeiffer, the “Combination effect (Loewe Volume) Pfeiffer” value was “No Effect”. The “Combination effect (Loewe Volume) RL” value in the experiment with RL is listed as “Synergy (VLoewe>1: synergy)”. For the same compound, in the experiment with SUDHL10, the “Combination effect (Loewe Volume) SUDHL10” value was “No Effect”. The “Combination effect (Loewe Volume) SUDHL2” value in the experiment on SUDHL2 was “Synergy (VLoewe>1: synergy)”. Further, the “Combination effect (Loewe Volume) SUDHL4” value with SUDHL4 is listed as “Synergy (VLoewe>1: synergy)”. Besides, the “Combination effect (Loewe Volume) SUDHL5” value in the experiment on SUDHL5 is “Additivity (between 1 and −1: additivity)”. For the same compound, the “Combination effect (Loewe Volume) SUDHL6” value in the experiment on SUDHL6 was “Synergy (VLoewe>1: synergy)”. Besides, the “Combination effect (Loewe Volume) SUDHL8” value in the experiment on SUDHL8 is “No Effect”. Besides, the “Combination effect (Loewe Volume) TOLEDO” value in the experiment on TOLEDO is “Synergy (VLoewe>1: synergy)”. Also, the “Combination effect (Loewe Volume) WILL2” value in the experiment with WILL2 is reported as “Synergy (VLoewe>1: synergy)”. Moreover, the “Combination effect (Loewe Volume) WSUDLCL2” value in the experiment on WSUDLCL2 is “Synergy (VLoewe>1: synergy)”. Moreover, the “Combination effect (Loewe Volume) WSUNHL” value in the experiment on WSUNHL is reported as “Synergy (VLoewe>1: synergy)”. For the same compound, in [1], the “Combination effect with Cpd. No. 15 (Loewe Volume class), Ri1” value is reported as “Synergy (VLoewe>1: synergy)”; the “Combination effect with Cpd. No. 15 (Loewe Volume class), TMD8” value is on record as “Synergy (VLoewe>1: synergy)”; the “Combination effect with Cpd. No. 15 (Loewe Volume class), WILL1” value is listed as “Synergy (VLoewe>1: synergy)”.
For the compound `N.N.O=C([O-])C1(C(=O)[O-])CCC1.[Pt+2]` [Carboplatin, carboplatin], the “Combination effect (Loewe Volume) DB” value with DB was “Additivity (between 1 and −1: additivity)”. Moreover, in the experiment with DOHH2, the “Combination effect (Loewe Volume) DOHH2” value was “Additivity (between 1 and −1: additivity)”. Further, the “Combination effect (Loewe Volume) HT” value in the experiment with HT was “Additivity (between 1 and −1: additivity)”. In the experiment with KARPAS422, the “Combination effect (Loewe Volume) KARPAS422” value is “Additivity (between 1 and −1: additivity)”. In addition, in the experiment on Pfeiffer, the “Combination effect (Loewe Volume) Pfeiffer” value is “Additivity (between 1 and −1: additivity)”. For the same compound, the “Combination effect (Loewe Volume) SUDHL10” value with SUDHL10 is “Additivity (between 1 and −1: additivity)”. The “Combination effect (Loewe Volume) SUDHL2” value with SUDHL2 was “Additivity (between 1 and −1: additivity)”. The “Combination effect (Loewe Volume) SUDHL5” value in the experiment with SUDHL5 is “Additivity (between 1 and −1: additivity)”. Also, the “Combination effect (Loewe Volume) SUDHL8” value with SUDHL8 is “Synergy (VLoewe>1: synergy)”. Besides, the “Combination effect (Loewe Volume) TOLEDO” value in the experiment with TOLEDO was “Additivity (between 1 and −1: additivity)”. For the same compound, the “Combination effect (Loewe Volume) WILL2” value in the experiment on WILL2 was “Additivity (between 1 and −1: additivity)”. Besides, the “Combination effect (Loewe Volume) WSUNHL” value in the experiment on WSUNHL is recorded as “Synergy (VLoewe>1: synergy)”. In addition, in [1], the “Combination effect with Cpd. No. 15 (Loewe Volume class), Ri1” value is “Additivity (between 1 and −1: additivity)”; the “Combination effect with Cpd. No. 15 (Loewe Volume class), TMD8” value was “Additivity (between 1 and −1: additivity)”; the “Combination effect with Cpd. No. 15 (Loewe Volume class), WILL1” value is “Additivity (between 1 and −1: additivity)”. For the same compound, in experiment [2], the “Combination effect with Cpd. No. 15 (Loewe Volume class), Farage” value is “Additivity (between 1 and −1: additivity)”; the “Combination effect with Cpd. No. 15 (Loewe Volume class), HT” value was “Synergy (VLoewe>1: synergy)”; the “Combination effect with Cpd. No. 15 (Loewe Volume class), OCILY7” value is “Additivity (between 1 and −1: additivity)”; the “Combination effect with Cpd. No. 15 (Loewe Volume class), WILL2” value is “Synergy (VLoewe>1: synergy)”.
